Here are results for 9 compounds from patent US12187713B2, “Immunomodulators, compositions and methods thereof” (Betta Pharmaceuticals Co., Ltd, priority 2019, dated 2025).

Series [1] has as its target PD-1/PD-L1 (Homo sapiens (Human), UniProt Q9NZQ7). Kind of series: PD-1/PD-L1 Binding Assay (Alphascreen). The conditions noted are these: numeric values. The procedure, abridged:
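PD-1/PD-L1 binding detected by anti-6×His acceptor and streptavidin donor beads after 120 min in the dark at 25 °C. Beforehand, the two proteins were incubated 15 min at 25 °C with inhibitor at 0.015–300 nM (1% DMSO). IC50 comes from a log concentration–response curve.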

Series [2] in a line: Pharmacokinetic Assay, single oral dose 100 mg/kg (Table 11). Format: in vivo. To be noted: mouse, C57 female mice, oral (intragastric), plasma. As to the method: Adult C57 female mice were received to single-dose of the test compounds with […], 10% Kolliphor^@HS 15 and 80% saline as excipients, the mice (n=9) were giving oral administration (intragastric administration) with the compounds at a dose of 100 mg/kg. Time of blood collection: 15 min, 30 min, 1 h, 2 h, 4 h, 7 h, 24 h. Approximately 0.1 mL of whole blood was collected from retro-orbital venous plexus of 3 mice at each time point, and placed into tubes that contained K2-EDTA as an anticoagulant. The whole blood was centrifuged at 4° C. and 4000 rpm for 10 min. The plasma was transferred into centrifuge tubes, and stored at −20° C. until being analyzed. Concentrations of test compounds in the plasma samples were analyzed with liquid chromatography-tandem mass spectrometry (LC-MS/MS). Plasma concentration-time data of individual animals was analyzed using Microsoft Excel 2010. Non-compartmental model was introduced in concentration analysis. The pharmacokinetic parameters of the test compounds were calculated using WinNonlin (version 4.1; Pharsight) software.

Series [3] can be described thus: Pharmacokinetic Assay, single oral dose 5 mg/kg (Table 12). Format: in vivo. To be noted: mouse, plasma concentration, C57 female mice, single oral dose 5 mg/kg. The procedure, abridged:
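Adult female C57 mice (n=3) got one intragastric dose of 5 mg/kg in 15% DMSO, 10% Kolliphor HS 15, 75% saline. Retro-orbital blood was taken at 30 min, 2 h and 4 h into K2-EDTA. Plasma levels were measured by LC-MS/MS.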

The subject of series [4] is PD-1/PD-L1 interaction (Jurkat T cells expressing hPD-1 and PD-L1 aAPC/CHO-K1 cells expressing hPD-L1). As to the kind of experiment: NFAT Assay (PD-1/PD-L1 Blockade Bioassay, luciferase reporter). The class given is cell-based. To be noted: Homo sapiens; PD-1 effector Jurkat cells + PD-L1 aAPC/CHO-K1 cells, Bio-Glo luciferase. As to the method: PD-1/PD-L1 Blockade Bioassay contains two cells: PD-1 Effector Cells, which are the Jurkat T cells expressing hPD-1 and luciferase reporter genes; PD-L1 aAPC/CHO-K1 Cells, which are the CHO-K1 cells expressing hPD-L1 and activate TCR's cell surface proteins. The antibody or small molecule compound is incubated with these two cells for a period of time, and the amount of the product is detected using Bio-Glo Luciferase reagent and chemiluminescence method to reflect the influence of antibody or small molecule compound on PD-1/PD-L1 interaction.
Cell medium: 36 mL Ham's F-12; 4 mL FBS
1) Resuscitate PD-L1 aAPC/CHO-K1 Cells on the first day and the cells were suspended and counted with cell recovery medium. The cells were diluted to 2.65*10^5/ml with cell medium. Seed cells at density of 6000 cells/well of 384-wells plates, incubator for 16-24 h;
2) Dilute the compound to 5 mM with DMSO. The 5 mM solution was used as the first concentration, and a 3-fold gradient dilution was performed, with a total of 9 concentration gradients, and the 10th concentration was used as the DMSO control;
3) Positive control antibody Atezolizumab was diluted to 4 μg/ml with assay buffer. 4 μg/ml was used as the first concentration, and a 2.5-fold gradient dilution was performed, with a total of 9 concentration gradients, and the 10th concentration was used as the assay buffer control;
4) Aspirate the medium from the 384-well plate. Add 10 μL/well of compound to the 384-well plate and incubate for 2 hours;
5) Resuscitate PD-1 effector cells and the cells were suspended and counted with cell recovery medium. The cells were diluted to […] with cell medium. Seed cells at density of 8000 cells/well to 384-wells plates of step 4, incubator for 17 h;
6) Add 20 μL/well of Bio-Glo luciferase reagent to the 384 reaction plate of step 5, and incubate at 25° C. for 5-30 minutes.
7) Read the RLU (relative luminescence unit) value using the Envision multi-plate reader. The experimental data were plotted using compound concentration as X value and RLU as Y value.

Chain of PD-1/PD-L1 (Q9NZQ7 19-238): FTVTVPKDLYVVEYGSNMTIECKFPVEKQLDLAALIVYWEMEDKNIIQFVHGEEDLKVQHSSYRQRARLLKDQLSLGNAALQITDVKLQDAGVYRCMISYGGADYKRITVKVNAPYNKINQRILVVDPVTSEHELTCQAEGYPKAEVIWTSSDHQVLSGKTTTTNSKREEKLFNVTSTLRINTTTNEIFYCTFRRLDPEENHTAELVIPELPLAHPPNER

`Cc1c(-c2nc3cc(CN4CCCC4)c(OC(F)F)cc3o2)cccc1-c1cccc(-c2nc3cc(CN4CCC[C@H]4C(=O)O)c(OC(F)F)cc3o2)c1C` [Example 5, ((6-(difluoromethoxy)-2-(3′-(6-(difluoromethoxy)-5-(pyrrolidin-1-ylmethyl)benzo[d]oxazol-2-yl)-2,2′-dimethyl-[1,1′-biphenyl]-3-yl)benzo[d]oxazol-5-yl)methyl)-L-proline] displayed an IC50 in series [1] of 0.4 nM. Moreover, in series [2], the AUC stood at 25700 ng·h/mL, the Cmax was found to be 2600 ng/mL, the Tmax stood at 4 h and the half-life is 5.07 h. For the same compound, in series [3], the concentration at 0.5 h came out at 43.9 ng/mL, the concentration at 2 h stood at 55.7 ng/mL and the concentration at 4 h came to 61.2 ng/mL. Besides, in series [4], the EC50 came out at 317 nM.
On to `Cc1c(-c2nc3cc(CN4CC(C)(C)C4)c(OC(F)F)cc3o2)cccc1-c1cccc(-c2nc3cc(CN4CCC[C@H]4C(=O)O)c(OC(F)F)cc3o2)c1C` [Example 34, ((6-(difluoromethoxy)-2-(3′-(6-(difluoromethoxy)-5-((3,3-dimethylazetidin-1-yl)methyl)benzo[d]oxazol-2-yl)-2,2′-dimethyl-[1,1′-biphenyl]-3-yl)benzo[d]oxazol-5-yl)methyl)-L-proline], for which the IC50 in series [1] worked out at 1.3 nM. In addition, in series [2], the AUC came to 56100 ng·h/mL, the Cmax was 4260 ng/mL, the Tmax came to 4 h and the half-life was 6.99 h. For the same compound, in series [3], the concentration at 0.5 h was determined as 46.8 ng/mL, the concentration at 2 h is 136 ng/mL and the concentration at 4 h turned out to be 154 ng/mL.
As for `Cc1c(-c2nc3cc(CN4CCC[C@H]4C(=O)O)c(OC(F)F)cc3o2)cccc1-c1cccc(-c2nc3cc(CN4CC(C)(C)C4)cc(C#N)c3o2)c1C` [Example 103, ((2-(3′-(7-cyano-5-((3,3-dimethylazetidin-1-yl)methyl)benzo[d]oxazol-2-yl)-2,2′-dimethyl-[1,1′-biphenyl]-3-yl)-6-(difluoromethoxy)benzo[d]oxazol-5-yl)methyl)-L-proline], the IC50 in series [1] worked out at 0.13 nM. Further, in series [2], the AUC was 96400 ng·h/mL, the Cmax worked out at 5590 ng/mL, the Tmax came out at 4 h and the half-life is 23.4 h. Moreover, in series [3], the concentration at 0.5 h is 48.9 ng/mL, the concentration at 2 h was determined as 185 ng/mL and the concentration at 4 h is 135 ng/mL. Also, the EC50 in series [4] is 254 nM.
The compound `Cc1c(-c2nc3c(o2)CCNC3)cccc1-c1cccc(-c2nc3cc(CN4CCC[C@H]4C(=O)O)c(OC(F)F)cc3o2)c1C` [Example 190, ((6-(difluoromethoxy)-2-(2,2′-dimethyl-3′-(4,5,6,7-tetrahydrooxazolo[4,5-c]pyridin-2-yl)-[1,1′-biphenyl]-3-yl)benzo[d]oxazol-5-yl)methyl)-L-proline] gave an IC50 in series [1] of 0.2 nM. Moreover, in series [2], the AUC was determined as 8570 ng·h/mL, the Cmax is 1280 ng/mL, the Tmax came out at 1 h and the half-life was 3.57 h.
The like results for `Cc1c(-c2ccc(CN3CCCC3)c(F)c2)cccc1-c1cccc(-c2nc3cc(CN4CCC[C@H]4C(=O)O)c(OC(F)F)cc3o2)c1C` [Example 243, ((6-(difluoromethoxy)-2-(3″-fluoro-2,2′-dimethyl-4″-(pyrrolidin-1-ylmethyl)-[1,1′:3′,1″-terphenyl]-3-yl)benzo[d]oxazol-5-yl)methyl)-L-proline] were, in that order, 2.5 nM, 67400 ng·h/mL, 4890 ng/mL, 1 h and 6.93 h.
The matching figures for `Cc1c(-c2ccc(CN3CCCC3)c(OC(F)F)c2)cccc1-c1cccc(-c2nc3cc(CN4CCC[C@H]4C(=O)O)c(OC(F)F)cc3o2)c1C` [Example 244, ((6-(difluoromethoxy)-2-(3″-(difluoromethoxy)-2,2′-dimethyl-4″-(pyrrolidin-1-ylmethyl)-[1,1′:3′,1″-terphenyl]-3-yl)benzo[d]oxazol-5-yl)methyl)-L-proline]: 2 nM, 78100 ng·h/mL, 5740 ng/mL, 2 h and 7.01 h.
For `Cc1c(-c2nc3c(o2)CCN(C)C3)cccc1-c1cccc(-c2nc3cc(CN4CCC[C@H]4C(=O)O)c(OC(F)F)cc3o2)c1C` [Example 314, ((6-(difluoromethoxy)-2-(2,2′-dimethyl-3′-(5-methyl-4,5,6,7-tetrahydrooxazolo[4,5-c]pyridin-2-yl)-[1,1′-biphenyl]-3-yl)benzo[d]oxazol-5-yl)methyl)-L-proline], the IC50 in series [1] stood at 8 nM. In addition, in series [2], the AUC turned out to be 29000 ng·h/mL, the Cmax was determined as 6350 ng/mL, the Tmax was found to be 2 h and the half-life was 5.43 h.
Take `Cc1c(-c2nc3cc(CN4CCC[C@H]4C(=O)O)ccc3o2)cccc1-c1cccc(-c2nc3cc(CN4CCCC4)c(OC(F)F)cc3o2)c1C` [Example 317, ((2-(3′-(6-(difluoromethoxy)-5-(pyrrolidin-1-ylmethyl)benzo[d]oxazol-2-yl)-2,2′-dimethyl-[1,1′-biphenyl]-3-yl)benzo[d]oxazol-5-yl)methyl)-L-proline]: in series [3], the concentration at 0.5 h is 20.6 ng/mL, the concentration at 2 h amounted to 88.5 ng/mL and the concentration at 4 h was 44.3 ng/mL. In addition, in series [4], the EC50 came to 4700 nM.
In the case of `Cc1c(-c2nc3cc(CN4CCC[C@H]4C(=O)O)ccc3o2)cccc1-c1cccc(-c2nc3cc(CN4CC(C)(C)C4)cc(C#N)c3o2)c1C` [Example 318, ((2-(3′-(7-cyano-5-((3,3-dimethylazetidin-1-yl)methyl)benzo[d]oxazol-2-yl)-2,2′-dimethyl-[1,1′-biphenyl]-3-yl)benzo[d]oxazol-5-yl)methyl)-L-proline], the EC50 in series [4] was determined as 3220 nM.

A word on the IC50: it is the concentration that inhibits the measured activity by half. A low value points to greater potency in that assay. The AUC is the area under the concentration-time curve, a measure of exposure. The low end stands for low exposure, the high end for high exposure. As a reminder, the Cmax is the peak of the concentration-time curve. As usually defined, the Tmax is the time at which the peak concentration occurs. As usually defined, the half-life is the time needed for the level to fall by half in the phase considered. Read a low half-life as rapid decline. In general, EC50 refers to the concentration needed to bring the measured effect to its halfway point.
